“And” between values parts separate entries of the source, which are not always exact repeats. Identical values can stand only once.
What was measured:
[1] = biological target: Muscarinic acetylcholine receptors; M1 & M2 (Homo sapiens) (UniProt P11229+P08172); test: Ratio of binding affinity to M1 receptor compared to that of M2 receptor; type: protein assay
[2] = biological target: T1, Muscarinic acetylcholine receptor M2 (Homo sapiens, UniProt P08172); test: Binding affinity towards the cloned human Muscarinic acetylcholine receptor M2
T1 sequence (P08172 whole entry): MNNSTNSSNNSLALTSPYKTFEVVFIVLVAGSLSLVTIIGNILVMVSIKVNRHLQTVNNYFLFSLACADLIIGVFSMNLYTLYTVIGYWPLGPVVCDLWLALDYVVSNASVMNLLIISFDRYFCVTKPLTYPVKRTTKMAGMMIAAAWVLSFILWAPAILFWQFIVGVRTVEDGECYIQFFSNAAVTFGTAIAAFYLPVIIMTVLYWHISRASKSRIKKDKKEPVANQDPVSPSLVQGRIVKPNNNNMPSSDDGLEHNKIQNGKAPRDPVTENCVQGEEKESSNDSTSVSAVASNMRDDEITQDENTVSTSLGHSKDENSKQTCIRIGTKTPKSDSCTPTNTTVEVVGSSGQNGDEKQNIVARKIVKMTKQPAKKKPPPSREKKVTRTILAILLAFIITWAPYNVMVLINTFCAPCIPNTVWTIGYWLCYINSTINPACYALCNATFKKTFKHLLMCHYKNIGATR

[3] = biological target: T2, Muscarinic acetylcholine receptor M1 (Homo sapiens, UniProt P11229); test: Binding affinity towards the cloned human Muscarinic acetylcholine receptor M1
T2 sequence (P11229 whole entry): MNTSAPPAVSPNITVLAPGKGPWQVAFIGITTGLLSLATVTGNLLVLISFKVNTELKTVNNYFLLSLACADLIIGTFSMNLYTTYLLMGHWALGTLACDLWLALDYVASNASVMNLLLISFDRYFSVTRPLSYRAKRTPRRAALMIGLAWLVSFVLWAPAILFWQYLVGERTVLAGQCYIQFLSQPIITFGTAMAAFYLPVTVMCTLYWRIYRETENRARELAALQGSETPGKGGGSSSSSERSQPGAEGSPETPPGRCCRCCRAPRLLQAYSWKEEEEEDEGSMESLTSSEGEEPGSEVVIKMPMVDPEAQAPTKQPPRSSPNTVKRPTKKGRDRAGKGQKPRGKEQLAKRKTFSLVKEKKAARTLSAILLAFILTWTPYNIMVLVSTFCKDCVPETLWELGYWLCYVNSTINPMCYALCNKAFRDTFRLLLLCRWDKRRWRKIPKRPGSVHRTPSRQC

Ratio [1]	Ki [2]	Ki [3]	SMILES
40	–	–	COc1ccc([S@@+]([O-])c2ccc(C(C#N)N3CCN(C4CCCCC4)CC3)cc2)cc1 (stereo in doubt; 1) [listing 1 of 2 here]
–	0.009 µM and 0.017 µM	0.14 µM and 0.253 µM	COc1ccc([S@@+]([O-])c2ccc(C(C#N)N3CCN(C4CCCCC4)CC3)cc2)cc1 (single isomer, unassigned; form 1) [listing 1 of 2 here]
–	0.0038 µM and 0.02 µM	0.083 µM and 0.18 µM	COc1ccc([S@@+]([O-])c2ccc(C(C#N)N3CCN(C4CCCCC4)CC3)cc2)cc1 (single isomer, unassigned; form 2) [listing 1 of 2 here]
14	0.008 µM	0.117 µM	COc1ccc([S+]([O-])c2ccc(C(C#N)N3CCN(C4CCCCC4)CC3)cc2)cc1 (stereo unspecified)
5	0.005 µM	0.023 µM	COc1ccc([S+]([O-])c2ccc(C(N3CCN(C4CCCCC4)CC3)C(F)(F)F)cc2)cc1 (stereo unspecified)
22 and 9	–	–	COc1ccc([S@@+]([O-])c2ccc(C(C#N)N3CCN(C4CCCCC4)CC3)cc2)cc1 (single isomer, unassigned; form 2) [listing 2 of 2 here]
15	–	–	COc1ccc([S@@+]([O-])c2ccc(C(C#N)N3CCN(C4CCCCC4)CC3)cc2)cc1 (single isomer, unassigned; form 1) [listing 2 of 2 here]
6	0.04 µM	0.242 µM	COc1ccc([S+]([O-])c2ccc(C(C(N)=O)N3CCN(C4CCCCC4)CC3)cc2)cc1 (stereo unspecified)
6	–	–	COc1ccc([S+]([O-])c2ccc(C(C)N3CCN(C4CCCCC4)CC3)cc2)cc1 (stereo unspecified)
3	0.017 µM	0.052 µM	COc1ccc([S+]([O-])c2ccc(C(C3CCCCC3)N3CCN(C4CCCCC4)CC3)cc2)cc1 (stereo unspecified)
–	0.0027 µM	–	COc1ccc([S@@+]([O-])c2ccc(C(C#N)N3CCN(C4CCCCC4)CC3)cc2)cc1 (stereo in doubt; 1) [listing 2 of 2 here]

The remaining lines, values behind:

SMILES	Ratio [1]	Ki [2]	Ki [3]
CC(c1ccc(S(=O)(=O)c2ccccc2)cc1)N1CCN(CCO)CC1 (stereo unspecified)	3	0.026 µM	0.077 µM
Cc1ccc(S(=O)(=O)c2ccc(C(C)N3CCN(C4CCCCC4)CC3)cc2)cc1 (stereo unspecified)	14	0.0008 µM	0.011 µM
CC(c1ccc(S(=O)(=O)c2ccc(S(C)(=O)=O)cc2)cc1)N1CCN(C2CCCCC2)CC1 (stereo unspecified)	3	0.036 µM	0.106 µM
CC(c1ccc(S(=O)(=O)c2ccc(C(C)(C)C)cc2)cc1)N1CCN(C2CCCCC2)CC1 (stereo unspecified)	2.6	0.033 µM	0.085 µM
CC(c1ccc(S(=O)(=O)c2ccccc2)cc1)N1CCN(c2ccccc2)CC1 (stereo unspecified)	1	4.6 µM	4.77 µM
COc1ccc(S(=O)(=O)c2ccc(C(C)N3CCN(C4CCCCC4)CC3)cc2)cc1 (stereo unspecified)	10	0.0006 µM	0.006 µM
CC(c1ccc(S(=O)(=O)c2ccccc2)cc1)N1CCN(C2CCCCC2)CC1 (stereo unspecified)	6	0.0002 µM	0.0013 µM
CC(c1ccc(S(=O)(=O)c2ccccc2)cc1)N1CCN(C)CC1 (stereo unspecified)	3	0.034 µM	0.096 µM
CCOC(=O)N1CCN(C(C)c2ccc(S(=O)(=O)c3ccccc3)cc2)CC1 (stereo unspecified)	1.5	0.135 µM	0.2 µM
CC(c1ccc(S(=O)(=O)c2ccccc2)cc1)N1CCNCC1 (stereo unspecified)	1.6	0.037 µM	0.057 µM

Source: ChEMBL document CHEMBL1132769, “Diphenyl sulfoxides as selective antagonists of the muscarinic M2 receptor” (Bioorg Med Chem Lett, 2000)
